Patent publication US9884063B2, “Amido-substituted azole compounds” (Bayer Pharma Aktiengesellschaft, priority 2014, dated 2018)

Key:
[1] = target: T1, TNKS1 (Homo sapiens, UniProt O95271); assay: TNKS1 Assay 1 (TNKS1 Histone Ribosylation Assay Kit, biotin-labeled NAD+); format: biochemical; details: chemiluminescent readout, 384 well
T1 sequence (O95271 1-1327): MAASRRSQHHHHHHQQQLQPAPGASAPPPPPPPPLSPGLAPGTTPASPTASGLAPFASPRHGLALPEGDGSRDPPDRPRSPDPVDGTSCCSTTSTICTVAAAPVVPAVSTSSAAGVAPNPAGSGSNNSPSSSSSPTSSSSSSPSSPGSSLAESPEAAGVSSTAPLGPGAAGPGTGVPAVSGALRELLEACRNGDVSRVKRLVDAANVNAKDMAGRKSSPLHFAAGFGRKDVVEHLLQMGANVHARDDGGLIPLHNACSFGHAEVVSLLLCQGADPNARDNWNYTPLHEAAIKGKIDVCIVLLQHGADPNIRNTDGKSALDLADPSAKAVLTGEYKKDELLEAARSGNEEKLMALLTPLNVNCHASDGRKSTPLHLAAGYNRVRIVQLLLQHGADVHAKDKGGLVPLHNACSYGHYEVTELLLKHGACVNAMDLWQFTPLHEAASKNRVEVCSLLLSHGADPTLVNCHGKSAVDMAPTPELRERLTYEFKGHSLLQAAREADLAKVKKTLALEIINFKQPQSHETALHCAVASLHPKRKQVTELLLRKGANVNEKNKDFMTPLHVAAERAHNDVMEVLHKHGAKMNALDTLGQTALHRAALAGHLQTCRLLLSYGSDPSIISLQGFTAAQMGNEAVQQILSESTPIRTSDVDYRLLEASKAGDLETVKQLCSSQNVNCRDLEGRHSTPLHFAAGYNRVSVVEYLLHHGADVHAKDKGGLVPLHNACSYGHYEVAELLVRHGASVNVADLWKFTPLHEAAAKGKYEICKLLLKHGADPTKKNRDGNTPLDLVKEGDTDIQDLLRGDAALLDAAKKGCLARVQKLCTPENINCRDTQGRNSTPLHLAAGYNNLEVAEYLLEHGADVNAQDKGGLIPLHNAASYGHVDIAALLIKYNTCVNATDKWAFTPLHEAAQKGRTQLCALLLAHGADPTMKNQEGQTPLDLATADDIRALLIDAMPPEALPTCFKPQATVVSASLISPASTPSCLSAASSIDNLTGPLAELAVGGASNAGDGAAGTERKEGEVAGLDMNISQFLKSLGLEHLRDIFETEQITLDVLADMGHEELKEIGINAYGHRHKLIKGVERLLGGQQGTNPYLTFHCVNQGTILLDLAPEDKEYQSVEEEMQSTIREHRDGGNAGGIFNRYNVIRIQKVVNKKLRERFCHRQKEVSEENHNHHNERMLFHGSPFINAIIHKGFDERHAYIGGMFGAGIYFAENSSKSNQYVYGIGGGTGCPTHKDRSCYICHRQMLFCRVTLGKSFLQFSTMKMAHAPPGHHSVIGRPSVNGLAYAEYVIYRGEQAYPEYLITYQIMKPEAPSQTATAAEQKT
Procedure: The potency of the compounds according to the invention was assessed by applying an in vitro inhibition assay. The TNKS1 catalyzed NAD^+-dependent ribosylation of a suitable protein substrate was detected using a commercially available biotin/streptavidin binding based assay format [TNKS1 Histone Ribosylation Assay Kit (Biotin-labeled NAD+), Catalog #80579; BPS Bioscience, San Diego, USA]. Here, the incorporation of a biotin-labeled NAD+ during the TNKS1 catalyzed ribosylation reaction was detected with a streptavidin-HRP coupled chemi-luminescent readout. The intensity of the readout signal is proportional to the incorporated NAD^+. Inhibition of TNKS1 leads to a decreased incorporation of NAD^+ and consequently to a lower readout signal intensity. The concentration of a test compound which inhibits the enzyme activity by 50% (corresponds to half of the normed readout signal intensity) is reported as IC50.
The assay was conducted in a 384 well MTP format according to the manufacturer's protocol [bpsbioscience.com/poly-adp-ribose-polymerase/assay-kit/tnks1-histone-ribosylation-assay-kit-biotin-labeled-nad-80579 referencing: Brown, J. A., Marala, R. B. J. Pharmacol. Toxicol. Methods 2002 47:137-41] and using a BMG Pherastar MTP reader [BMG-Labtech, Offenburg, Germany].

[2] = tested on: HEK293 FOP control reporter cell line; assay: HEK293 FOP Assay (FOP control vector luciferase reporter); format: cell-based; details: Homo sapiens
How it was run: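 Compound series 50 μM to 15 nM, 3.16-fold steps, were diluted in CAFTY buffer (pH 7.4, 2 mM Ca2+, 0.01% BSA) and tested alongside the TOP reporter line. Human Wnt-3a was added at 2500–5 ng/ml in two-fold steps. The control HEK293 line stably holds an FOP vector whose TCF elements are randomized and non-functional.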

[3] = HEK293 FOP control reporter cells, 16 hours, luciferase, dilution series from 50 μM
[4] = HEK293 FOP control reporter cell line, 16 hours incubation, compound dilution series 50 μM to 15 nM

Structure (SMILES) | IC50 ([1]; Table 1) [nM] | IC50 ([1]; first table) [nM] | IC50 [2, 3] [nM] | IC50 [2, 4] [nM]
CNC(=O)c1nc[nH]c1C(=O)Nc1ccc(NC(=O)c2ccncc2Cl)cc1 [Example 6, N^5-{4-[(3-chloroisonicotinoyl)amino]phenyl}-N^4-methyl-1H-imidazole-4,5-dicarboxamide] | 50 | 50 | ≥ 50000 | –
CCC(C)NC(=O)c1ncoc1C(=O)Nc1ccc(NC(=O)c2ccc(F)cc2Cl)cc1 (stereo not shown) [Example 7, N^4-sec-butyl-N^5-{4-[(2-chloro-4-fluorobenzoyl)amino]phenyl}-1,3-oxazole-4,5-dicarboxamide] | 1300 | 1300 | 45000 | 45000
CC(NC(=O)c1ncoc1C(=O)Nc1ccc(NC(=O)c2ccc(F)cc2Cl)cc1)c1ccccc1 (stereo not shown) [Example 8, N^5-{4-[(2-chloro-4-fluorobenzoyl)amino]phenyl}-N^4-(1-phenylethyl)-1,3-oxazole-4,5-dicarboxamide] | 2270 | 2270 | ≥ 50000 | –
CNC(=O)c1nc[nH]c1C(=O)Nc1ccc(NC(=O)c2ccc(Cl)cc2Cl)cc1 [Example 9, N^5-{4-[(2,4-dichlorobenzoyl)amino]phenyl}-N^4-methyl-1H-imidazole-4,5-dicarboxamide] | 110 | 110 | 40000 | 31500
CC(C)NC(=O)c1nc[nH]c1C(=O)Nc1ccc(NC(=O)c2ccc(F)cc2Cl)cc1 [Example 10, N^5-{4-[(2-chloro-4-fluorobenzoyl)amino]phenyl}-N^4-isopropyl-1H-imidazole-4,5-dicarboxamide] | 310 | 310 | ≥ 50000 | 46000
CNC(=O)c1ncoc1C(=O)Nc1ccc(NC(=O)c2ccc(F)cc2Cl)cc1 [Example 11, N^5-{4-[(2-chloro-4-fluorobenzoyl)amino]phenyl}-N^4-methyl-1,3-oxazole-4,5-dicarboxamide] | 220 | – | ≥ 50000 | –
CNC(=O)c1nc[nH]c1C(=O)Nc1ccc(NC(=O)c2ccc(F)cc2Cl)cc1 [Example 12, N^5-{4-[(2-chloro-4-fluorobenzoyl)amino]phenyl}-N^4-methyl-1H-imidazole-4,5-dicarboxamide] | 20 | 20 | ≥ 50000 | –
COC(=O)c1ncoc1C(=O)Nc1ccc(NC(=O)c2ccc(F)cc2Cl)cc1 [Example 14, Methyl 5-({4-[(2-chloro-4-fluorobenzoyl)amino]phenyl}carbamoyl)-1,3-oxazole-4-carboxylate] | 420 | 420 | ≥ 50000 | –
CC(C)NC(=O)c1ncoc1C(=O)Nc1ccc(NC(=O)c2ccc(F)cc2Cl)cc1 [Example 15, N^5-{4-[(2-chloro-4-fluorobenzoyl)amino]phenyl}-N^4-isopropyl-1,3-oxazole-4,5-dicarboxamide] | 900 | 900 | ≥ 50000 | –
CNC(=O)c1nc[nH]c1C(=O)Nc1ccc(NC(=O)c2ccc(F)cc2Cl)nc1 [Example 16, N^5-{6-[(2-chloro-4-fluorobenzoyl)amino]pyridin-3-yl}-N^4-methyl-1H-imidazole-4,5-dicarboxamide] | 70 | 70 | ≥ 50000 | –
CNC(=O)c1nc[nH]c1C(=O)Nc1ccc(NC(=O)c2c(-c3ccccc3)nn(C)c2Cl)cc1 [Example 17, N^5-(4-{[(5-chloro-1-methyl-3-phenyl-1H-pyrazol-4-yl)carbonyl]amino}phenyl)-N^4-methyl-1H-imidazole-4,5-dicarboxamide] | > 100000 | ≥ 100000 | 26000 | 26000
O=C(Nc1ccc(NC(=O)c2[nH]cnc2C(=O)NCc2ccccc2)cc1)c1ccc(F)cc1Cl [Example 18, N^4-benzyl-N^5-{4-[(2-chloro-4-fluorobenzoyl)amino]phenyl}-1H-imidazole-4,5-dicarboxamide] | 420 | 420 | ≥ 50000 | –
CNC(=O)c1nc[nH]c1C(=O)Nc1ccc(NC(=O)c2ccccc2C)cc1 [Example 19, N^4-methyl-N^5-{4-[(2-methylbenzoyl)amino]phenyl}-1H-imidazole-4,5-dicarboxamide] | 1700 | 1700 | 11000 | 26500
CNC(=O)c1nc[nH]c1C(=O)Nc1ccc(NC(=O)c2ccc(F)cc2)cc1 [Example 20, N^5-{4-[(4-fluorobenzoyl)amino]phenyl}-N^4-methyl-1H-imidazole-4,5-dicarboxamide] | 1700 | 1700 | 31000 | 40500
CNC(=O)c1nc[nH]c1C(=O)Nc1ccc(NC(=O)c2c(C)cc(F)cc2C)cc1 [Example 23, N^5-{4-[(4-fluoro-2,6-dimethylbenzoyl)amino]phenyl}-N^4-methyl-1H-imidazole-4,5-dicarboxamide] | 770 | 770 | ≥ 50000 | –
CN(C)C(=O)c1nc[nH]c1C(=O)Nc1ccc(NC(=O)c2ccc(F)cc2Cl)cc1 [Example 24, N^5-{4-[(2-chloro-4-fluorobenzoyl)amino]phenyl}-N^4,N^4-dimethyl-1H-imidazole-4,5-dicarboxamide] | 280 | 280 | ≥ 50000 | –
CNC(=O)c1nc[nH]c1C(=O)Nc1ccc(NC(=O)c2ccc(OCCN(C)C)cc2Cl)cc1 [Example 25, N^5-[4-({2-chloro-4-[2-(dimethylamino)ethoxy]benzoyl}amino)phenyl]-N^4-methyl-1H-imidazole-4,5-dicarboxamide] | 70 | 70 | 34000 | 34000
CNC(=O)c1nc[nH]c1C(=O)Nc1ccc(NC(=O)c2c(Cl)cccc2Cl)cc1 [Example 26, N^5-{4-[(2,6-dichlorobenzoyl)amino]phenyl}-N^4-methyl-1H-imidazole-4,5-dicarboxamide] | 410 | 400 | ≥ 50000 | –
CNC(=O)c1nc[nH]c1C(=O)Nc1ccc(NC(=O)c2ccccc2Cl)cc1 [Example 27, N^5-{4-[(2-chlorobenzoyl)amino]phenyl}-N^4-methyl-1H-imidazole-4,5-dicarboxamide] | 100 | 100 | ≥ 50000 | –
CNC(=O)c1nc[nH]c1C(=O)Nc1ccc(NC(=O)c2ccc(OCCN3CCN(C)CC3)cc2Cl)cc1 [Example 28, N^5-[4-({2-chloro-4-[2-(4-methylpiperazin-1-yl)ethoxy]benzoyl}amino)phenyl]-N^4-methyl-1H-imidazole-4,5-dicarboxamide] | 70 | 70 | 42000 | 36000
O=C(Nc1ccc(NC(=O)c2[nH]cnc2C(=O)NCC(F)(F)F)cc1)c1ccc(F)cc1Cl [Example 30, N^4-{4-[(2-chloro-4-fluorobenzoyl)amino]phenyl}-N^5-(2,2,2-trifluoroethyl)-1H-imidazole-4,5-dicarboxamide] | 140 | 140 | 37500 | –
